Source: patent publication EP4635951A1, “SALT-TYPE GLP-1 RECEPTOR AGONIST, CRYSTAL FORM THEREOF, PREPARATION METHOD THEREFOR, PHARMACEUTICAL COMPOSITION THEREOF, AND USE THEREOF” (Hangzhou Zhongmeihuadong Pharmaceutical Co., Ltd., priority 2022, dated 2024)
Converted amounts (≈) assume the structure as drawn.

Assays:
[1] = physchem
[2] = target: T1, Human GLP-1R (Homo sapiens, UniProt P43220); experiment: GLP-1R agonistic activity, HTRF cAMP assay in 293A GFP-GLP-1R cells; assay type: cell-based; details: result in words
T1 construct: expressed in transfected cells; host or cells: 293A cells stably expressing GLP-1R-GFP
T1 sequence (P43220 24-463): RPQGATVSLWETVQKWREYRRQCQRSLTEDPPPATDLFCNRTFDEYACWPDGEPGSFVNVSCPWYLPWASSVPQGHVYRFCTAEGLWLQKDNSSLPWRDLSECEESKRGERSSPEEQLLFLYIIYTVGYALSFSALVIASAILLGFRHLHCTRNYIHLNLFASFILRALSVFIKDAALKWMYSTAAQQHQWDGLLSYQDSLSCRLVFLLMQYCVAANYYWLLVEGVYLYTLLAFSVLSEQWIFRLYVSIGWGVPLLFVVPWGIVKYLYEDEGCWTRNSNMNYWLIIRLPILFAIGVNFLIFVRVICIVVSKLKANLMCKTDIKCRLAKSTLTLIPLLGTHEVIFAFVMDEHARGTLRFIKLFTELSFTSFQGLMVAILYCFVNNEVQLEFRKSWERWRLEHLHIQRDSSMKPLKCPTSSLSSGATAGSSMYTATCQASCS
Excerpt: The method was a competitive immunoassay.

[3] = Dynamic solubility; details: for Dynamic solubility in water: 37°C±2°C
[4] = Solid-state stability, long-term and accelerated conditions; assay type: physicochemical; details: for Purity / purity decrease: 10 days
Excerpt: The free Compound I was in a crystalline form, and had the XRPD pattern indicated by the arrow in Figure 50.

[5] = High-temperature stability test; assay type: physicochemical
[6] = Equilibrium solubility; assay type: physicochemical; details: 37°C
Procedure: After 24 hours, samples were taken. The samples were centrifuged for separation, and the supernatant after filtration was used for solubility determination.

[7] = Water activity stability of crystal form; assay type: physicochemical
[8] = Pressure stability; assay type: physicochemical
[9] = Hygroscopicity by DVS; assay type: physicochemical; details: 25°C, 80%RH
[10] = High-humidity stability; assay type: physicochemical
[11] = Suspension competition tests between Crystal Form A and Crystal Form P; assay type: physicochemical; details: room temperature and 50°C
Procedure: The suspensions of Compound Z that had been equilibrated for 2 hours under the corresponding temperature and solvent conditions were filtered to obtain saturated solutions of Compound Z under different temperature and solvent conditions, and then solid mixtures of Crystal Forms A and P of Compound Z were added. After the suspension competition was carried out for 1 day, the solids were separated for XRPD characterization.

[12] = FaSSGF, 37 °C, fassgf or other biorelevant, thermodynamic from solid
[13] = fassif, 37 °C, thermodynamic from solid
[14] = listed as Compound I in the amorphous form

Compound: O=C(O)c1ccc2nc(CN3CCC(c4cccc(OCc5ccc(C6COC6)cc5F)n4)CC3)n(C[C@@H]3CCO3)c2c1 [Compound I, (S)-2-((4-(6-((2-fluoro-4-(oxetan-3-yl)benzyl)oxy)pyridin-2-yl)piperidin-1-yl)methyl)-1-(oxetan-2-ylmethyl)-1H-benzo[d]imidazole-6-carboxylic acid]
- solubility at 1 h [1, 12]: 100 µg/mL (≈ 170 µM)
- solubility at 2 h [1, 12]: 90 µg/mL (≈ 153 µM)
- solubility at 4 h [1, 12]: 110 µg/mL (≈ 188 µM)
- solubility at 24 h [1, 12]: 100 µg/mL (≈ 170 µM)
- solubility at 1 h [1, 13]: 40 µg/mL (≈ 68.2 µM)
- solubility at 4 h [1, 13]: 120 µg/mL (≈ 205 µM)
- solubility at 24 h [1, 13]: 210 µg/mL (≈ 358 µM)
- agonistic effect on GLP-1R [2]: strong agonistic effect
- XRPD of Residual Solid ([3]; FaSSGF, 1 h, listed as Free Compound I): Crystal Form A of the hydrochloride of Compound I
- XRPD of Residual Solid ([3]; FaSSGF, 2 h, listed as Free Compound I): Crystal Form A of the hydrochloride of Compound I
- Whether the crystal form changed ([3]; FaSSIF, 2 h): YES
- XRPD of Residual Solid ([3]; FaSSIF, 2 h): Crystal Form A of Compound I
- Dynamic solubility in water ([3]; FaSSIF, 2 h, listed as Free Compound I): 70 µg/mL
- Whether the crystal form changed ([3]; FaSSIF, 4 h): YES
- XRPD of Residual Solid ([3]; FaSSIF, 4 h): Crystal Form A of Compound I
- Whether the crystal form changed ([3]; FaSSIF, 24 h): YES
- XRPD of Residual Solid ([3]; FaSSIF, 24 h): Crystal Form A of Compound I
- Whether the crystal form changed ([3]; H2O (water), 1 h): YES
- XRPD of Residual Solid ([3]; H2O (water), 1 h): Crystal Form A of Compound I
- Dynamic solubility in water ([3]; H2O (water), 4 h, listed as Free Compound I): 30 µg/mL
- Dynamic solubility in water ([3]; H2O (water), 24 h, listed as Free Compound I): 30 µg/mL

Compound: O=C(O)c1ccc2nc(CN3CCC(c4cccc(OCc5ccc(C6COC6)cc5F)n4)CC3)n(C[C@@H]3CCO3)c2c1 [Crystal Form A of Compound Z]
- Purity ([4]; 25°C/60%RH): 97.38 % Area
- Purity ([4]; 40°C/75%RH): 97.35 % Area
- initial purity ([4]; HPLC, before storage): 97.41 % Area
- purity decrease ([4]; accelerated conditions (40°C/75%RH)): no obvious decrease
- purity decrease ([4]; long-term conditions (25°C/60%RH)): no obvious decrease
- purity decrease after 1 day ([5]; 60°C, 1 day): no obvious decrease
- purity after 1 day ([5]; HPLC purity (% area), 60°C, 1 day): 97.34%
- initial purity ([5]; HPLC purity (% area), before 60°C): 97.41%
- solubility thermodynamic at 24 h ([6]; FaSSIF (fasted-state simulated intestinal fluid)): 1190 µg/mL (≈ 2030 µM)
- solubility thermodynamic at 24 h ([6]; FeSSIF (fed-state simulated intestinal fluid)): 1170 µg/mL (≈ 1990 µM)
- solubility thermodynamic at 24 h ([6]; H2O (purified water)): 1940 µg/mL (≈ 3310 µM)
- solubility thermodynamic at 24 h ([6]; SGF (simulated gastric fluid)): 1000 µg/mL (≈ 1700 µM)
- water activity aw at which the crystal form is stable [7]: ≤ 0.388
- solubility at 1 h [1, 12]: 40 µg/mL (≈ 68.2 µM)
- solubility at 2 h [1, 12]: 140 µg/mL (≈ 239 µM)
- solubility at 4 h [1, 12]: 120 µg/mL (≈ 205 µM)
- solubility at 2 h ([1]; fassif): 130 µg/mL (≈ 222 µM)
- solubility at 1 h [1, 13]: 130 µg/mL (≈ 222 µM)
- solubility at 4 h [1, 13]: 110 µg/mL (≈ 188 µM)
- solubility at 24 h [1, 13]: 280 µg/mL (≈ 477 µM)
- solubility at 1 h ([1]; water): 5500 µg/mL (≈ 9380 µM)
- solubility at 2 h ([1]; water): 1380 µg/mL (≈ 2350 µM)
- solubility ([1]; water, 37 °C, fassgf or other biorelevant, thermodynamic from solid): 60 µg/mL (≈ 102 µM)
- purity decrease ([8]; 1000 Mpa, 5 minutes): no obvious decrease
- initial purity ([8]; HPLC purity (% area), before pressing): 97.31%
- Whether the crystal form changed ([3]; FaSSGF, 1 h): YES
- XRPD of Residual Solid ([3]; FaSSGF, 1 h): Amorphous
- Whether the crystal form changed ([3]; FaSSGF, 2 h): YES
- XRPD of Residual Solid ([3]; FaSSGF, 2 h): Amorphous
- Whether the crystal form changed ([3]; FaSSGF, 4 h): YES
- XRPD of Residual Solid ([3]; FaSSGF, 4 h): Crystal Form A of the hydrochloride of Compound I
- Whether the crystal form changed ([3]; FaSSGF, 24 h): YES
- XRPD of Residual Solid ([3]; FaSSGF, 24 h): Crystal Form A of the hydrochloride of Compound I
- Whether the crystal form changed ([3]; FaSSIF, 1 h): YES
- XRPD of Residual Solid ([3]; FaSSIF, 1 h): Crystal Form A of Compound I
- Whether the crystal form changed ([3]; H2O (water), 2 h): YES
- XRPD of Residual Solid ([3]; H2O (water), 2 h): Crystal Form A of Compound I
- Whether the crystal form changed ([3]; H2O (water), 4 h): YES
- XRPD of Residual Solid ([3]; H2O (water), 4 h): Crystal Form A of Compound I
- Dynamic solubility in water ([3]; H2O (water), 4 h, 240 min): 1230 µg/mL
- Whether the crystal form changed ([3]; H2O (water), 24 h): YES
- XRPD of Residual Solid ([3]; H2O (water), 24 h): Crystal Form A of Compound I
- Dynamic solubility in water ([3]; H2O (water), 24 h, 1440 min): 1330 µg/mL
- hygroscopicity class [9]: slightly hygroscopic (a weight gain of 0.2%-2% indicates slightly hygroscopic)
- weight gain (water absorbed) [9]: 1.696%
- purity decrease ([10]; 90%RH, 10 days): no obvious decrease
- initial purity ([10]; HPLC purity (% area), before high humidity): 97.41%
- thermodynamic stability relative to Crystal Form P [11]: thermodynamically more stable

Compound: O=C(O)c1ccc2nc(CN3CCC(c4cccc(OCc5ccc(C6COC6)cc5F)n4)CC3)n(C[C@@H]3CCO3)c2c1 [Amorphous form of Compound I]
- solubility thermodynamic at 24 h ([6]; fassif, FaSSIF (fasted-state simulated intestinal fluid)): 150 µg/mL (≈ 256 µM)
- solubility thermodynamic at 24 h ([6]; fessif, FeSSIF (fed-state simulated intestinal fluid)): 800 µg/mL (≈ 1360 µM)
- solubility thermodynamic at 24 h ([6]; purified water, H2O (purified water)): 430 µg/mL (≈ 733 µM)
- solubility thermodynamic at 24 h ([6]; sgf (simulated gastric fluid)): 410 µg/mL (≈ 699 µM)
- hygroscopicity class [9, 14]: hygroscopic (a weight gain of 2%-15% indicates hygroscopic)
- weight gain (water absorbed) [9, 14]: 4.029%
